Measurements from patent publication US9167837B2, “Peptides imparting umami, salt, dairy and bitter flavor” (International Flavors & Fragrances Inc., priority 2007, dated 2015).

What was measured:
[1] = Addition of flavor active peptide to seasoned microwave popcorn, evaluation of imparted flavor; conditions: approximately 0.1% peptide in popped microwave popcorn with White Cheddar Snack Seasoning (Table 3)
Description: Addition of the Gly-Pro-Phe-Pro-Ile (SEQ ID NO:2) peptide to the base microwave popcorn listed in Table 2 was carried out to evaluate the flavor imparted by the flavor active peptide.
The sodium content of the resulting seasoned popcorn was 596.6 mg Na^+/1 oz serving.

[2] = Addition of flavor active peptide to unflavored cheese sauce, evaluation of imparted flavor; conditions: 0.015% (w/w based) peptide added to unflavored cheese sauce of Table 1
Description: Addition of the Gly-Pro-Phe-Pro-Ile (SEQ ID NO:2) peptide to the unflavored cheese sauce listed in Table 1 was carried out to evaluate the flavor imparted by the flavor active peptide. The cheese sauce formulation can be described as having a mild, Monterey Jack cheese sauce flavor with some salty and savory notes.

## Gly-Pro-Phe-Pro-Ile (GPFPI) [Gly-Pro-Phe-Pro-Ile (SEQ ID NO:2)]
[1]
  flavor imparted by the flavor active peptide: imparted an increase in cheesyness, mouthfeel, and some umami character
[2]
  flavor imparted by the flavor active peptide: made the sauce taste more salty, creamy and dairy
